The source made the active and inactive calls. The calls are words filed in the database; no cut-off is given here.
Tests used:
Candida albicans [1] = test: Inhibition of germ tube formation in Candida albicans SC5314 assessed as reduction in yeast to hyphal conversion at 30 to 300 uM after 4 hrs by differential interference contrast microscopic analysis; assay type: functional, organism-based
Candida albicans [2] = test: Antifungal activity against Candida albicans SC5314 assessed as inhibition of yeast growth at <15 uM after 24 hrs by CLSI broth microdilution method; assay type: functional, organism-based
Candida albicans [3] = test: Inhibition of germ tube formation in Candida albicans SC5314 assessed as reduction in yeast to hyphal conversion at >200 uM after 4 hrs by differential interference contrast microscopic analysis relative to control; assay type: functional
Candida albicans [4] = test: Inhibition of hypal growth in Candida albicans SC5314 assessed as length of germ tube at 200 uM after 3 hrs by differential interference contrast microscopic analysis (reference value: 149.9 +/- 22.3 micrometer); assay type: functional
Candida albicans [5] = test: Inhibition of hypal growth in Candida albicans SC5314 assessed as length of germ tube at 200 uM after 6 hrs by differential interference contrast microscopic analysis (reference value: 235.2 +/- 40.4 micrometer); assay type: functional
Candida albicans [6] = test: Antifungal activity against Candida albicans SC5314 assessed as inhibition of yeast growth at 60 uM after 24 hrs by CLSI broth microdilution method relative to control; assay type: functional; details: SC5314, 24 h
Candida albicans [7] = test: Inhibition of hypal growth in Candida albicans SC5314 assessed as length of germ tube at 200 uM after 9 hrs by differential interference contrast microscopic analysis (reference value: 223.9 +/- 24.5 micrometer); assay type: functional
Candida albicans [8] = test: Antifungal activity against Candida albicans SC5314 assessed as inhibition of yeast growth at >30 uM after 24 hrs by CLSI broth microdilution method; assay type: functional, organism-based
Candida albicans [9] = test: Inhibition of hypal growth in Candida albicans SC5314 assessed as length of germ tube at 200 uM measured immediately by differential interference contrast microscopic analysis (reference value: 70.3 +/- 12.3 micrometer); assay type: functional
Candida albicans [10] = test: Antifungal activity against Candida albicans SC5314 assessed as inhibition of yeast growth at >120 uM after 24 hrs by CLSI broth microdilution method; assay type: functional, organism-based
Candida albicans [11] = test: Inhibition of germ tube formation in Candida albicans SC5314 assessed as yeast to hyphal conversion at 30 to 300 uM after 2 hrs by differential interference contrast microscopic analysis relative to control; assay type: functional; design: scale not given: the % may be the effect or the level left

Structure (SMILES)	inhibition (Candida albicans [1])	inhibition (Candida albicans [2])	inhibition (INH) (Candida albicans [3]) [%]	Activity (Candida albicans [4]) [um]	Activity (Candida albicans [5]) [um]	inhibition at 60 µM (Candida albicans [6]) [%]	Activity (Candida albicans [7]) [um]	inhibition (Candida albicans [8])	Activity (Candida albicans [9]) [um]	inhibition (Candida albicans [10])	Activity (Candida albicans [11]) [%]
O=C(O)c1cn(CCCCCCO)nn1	Active	Active	–	–	–	–	–	–	–	–	–
CCCCCCCCCCn1cc(C(=O)O)nn1	–	Active	95	59.1	45	90	53.3	Active	71.8	–	–
CCCCCCCCn1cc(C(=O)O)nn1	–	Active	95	64.4	54.6	90	74.2	Active	73.4	Active	–
CCCCCCCCc1ccc(C(=O)O)s1	–	–	–	–	–	–	–	–	–	–	>95
CCCCCCCCC/C=C\C(=O)O	Active	Active	–	73.3	63.5	–	64.2	Active	65.3	–	–
CCCCCCn1cc(C(=O)O)nn1	Active	Active	–	142.8	207.8	–	223.5	–	66.5	Active	–
CCCCCCCCOc1ccc(C(=O)O)cc1	–	–	–	–	–	–	–	–	–	–	>95
